According to US6423307B1, “Bioadhesive complexes of polycarbophil and azole antifungal or antiprotozoal drugs” (Farmigea S.p.A., priority 1996, dated 2002):

How the values were obtained:
C. albicans ATCC 48867 [1] = assay: Antifungal assay in solid medium (inhibition halo); type: cell-based, Candida albicans
Protocol: (§1) Two standard American Type Culture Collection (ATCC) strains were used for the assays, i.e. those deposited under the numbers ATCC 48867 and ATCC 23866. Econazole (base) and the econazole-polycarbophil complex were prepared by using different concentrations of the active ingredient depending on the assay requirements, as well as different solvents (i.e. propylene glycol, DMSO), with or without a thickening excipient substance (i.e. hydroxypropylcellulose). The activity of each solvent was also tested, as well as the activity of the excipient and that of polycarbophil alone.
The antifungal activity has been evaluated in an assay in solid medium using Petri dishes containing Sabouraud medium with 2% agar. The dishes were uniformly seeded, with the aid of a sterile pad, with an aqueous suspension containing C. albicans at a density of 2 McFarland. By means of an instrument of 6 mm diameter, incisions were made on the dishes in order to obtain regular cavities in the agar thickness. Each one of the substances under test was placed in one of these cavities, in amounts ranging from 50 to 100 μl. The plates were then incubated for 24 h in a thermostat at 37° C. The antifungal activity was evaluated by measuring the diameter of the inhibition of C. albicans growth around each cavity.
The antifungal assay in solid medium turned out to be a highly sensitive and reproducible assay also for the products under test. At least five separate experiments for evaluating the inhibition halos were carried our for each one of the two different strains and for each one of the compounds examined. Similar results were obtained with each compound in all of the experiments performed.

C. albicans ATCC 23866 = assay: Susceptibility test in microplate (liquid medium), MIC; type: cell-based, Candida albicans; settings: 48 h at 37° C.
Protocol: as §1
(§2) Stock solutions of econazole (base) and of the econazole-polycarbophil complex were obtained by dissolving the compounds in DMSO at a concentration of 1.5 mg/ml. Two serial 10-fold dilutions in DMSO were made starting from the stock solutions, up to a concentration of 15 μg/ml. From this concentration each compound was subsequently diluted in Yeast Nitrogen Base medium, to which 0.5% glucose and 0.05% bovine albumin had been added. The mixtures were then placed, at different concentrations, in microplate wells (90 μl volume each). 10 μl of a suspension of C. albicans obtained by diluting by {fraction (1/10+L )} a preparation having a turbidity of 2 McFarland were then inoculated in each well. […]

C. albicans ATCC 48867 [2] = assay: as above; type: cell-based, Candida albicans; settings: 48 h at 37° C.
Protocol: as §1, §2

[3] = tested on: Candida albicans, strain ATCC 48867; assay: Experimental intravaginal infection by Candida albicans in a murine model; type: in vivo, CBA/J (H-2^k) mice; settings: for Not improved (% of mice): above 990 colonies; for Not improved (number of mice): vaginal wash 4 hours after dosing, above 990 colonies in 50 μl PBS; for Improved (% of mice) / Improved (number of mice): 100 to 990 colonies in 50 μl PBS; for Cured (number of mice): all cultures negative; for Sensibly improved (% of mice) / Sensibly improved (number of mice): less than 100 colonies in 50 μl PBS
From the text: In the frame of the microbiological experimentation of the products of the invention, the in vivo pharmacological activity of the econazole-polycarbophil complex has also been tested, in comparison with that of econazole (base), in the treatment of an experimental intravaginal infection by Candida albicans, reproduced in a murine model.
Vaginal candidiasis in rodents may be induced only in pseudoestrus conditions (P. L. Fidel, M. E. Lynch, J. D. Sobel, Infection and Immunity, 61 (5), 1993, 1990). For this reason, 72 hours before vaginal inoculation, the CBA/J (H-2^k) mice, described as sensible to such infection (P. L. Fidel, J. L. Cutright, J. D. Sobel, Infection and Immunity, 63 (10), 1995, 4191) were treated with 0.5 mg of estradiol valerate, dissolved in sesame oil, administered by subcutaneous route. The estrogen administration was repeated weekly until completion of the study. Blastoconoids (5×10^5) of Candida albicans, strain ATCC 48867, were inoculated in the vagina of mice previously treated with estrogens. After one week from the inoculation, the infection degree was evaluated by means of vaginal washing and subsequent count of the colony-forming units (CFU) on plates of Sabouraud agar, to which chloramphenicol and gentamicin had been added.
The infected animals were divided into three test groups, each one of which underwent a therapeutic treatment for five subsequent days (from day 1 to day 5). Each therapeutic treatment respectively consisted of: 1) econazole (base) (0.5 wt. % and 1 wt. %); 2) econazole-polycarbophil complex (0.5 wt. % and 1 wt. % calculated as econazole); 3) excipients (control group).
The infection degree was checked before starting the treatment and at the end thereof (day 6). […] The statistical evaluation of the results was made by means of the χ^2 test.

[4] = 0.5 wt. % econazole, 5 days, checked day 6

With `Clc1ccc(COC(Cn2ccnc2)c2ccc(Cl)cc2Cl)cc1` (stereo not shown) [econazole (base), 1-{2-[(4-chlorophenyl)methoxy]-2-(2,4-dichlorophenyl)ethyl}-1H-imidazole] as the molecule, how does the “Diameter of inhibition halo” value (C. albicans ATCC 48867 [1]; Concentration 3 × 10^−2 %, preparation with HPC) read?
The value was 31.2 ± 0.84 mm.

And the “Diameter of inhibition halo” value (C. albicans ATCC 48867 [1]; Concentration 3 × 10^−2 %, preparation without HPC)?
Its value is 31.2 ± 0.84 mm.

And the “Diameter of inhibition halo” value (C. albicans ATCC 48867 [1]; Concentration 3 × 10^−3 %, preparation with HPC)?
The value was 29.4 ± 0.89 mm.

What about the “Diameter of inhibition halo” value (C. albicans ATCC 48867 [1]; Concentration 3 × 10^−3 %, preparation without HPC) of the same molecule?
Its value is 28.6 ± 0.55 mm.

What about the “Diameter of inhibition halo” value (C. albicans ATCC 48867 [1]; Concentration 3 × 10^−4 %, preparation with HPC) of the same molecule?
The value was 20.8 ± 1.30 mm.

And the “Diameter of inhibition halo” value (C. albicans ATCC 48867 [1]; Concentration 3 × 10^−4 %, preparation without HPC)?
Its value is 20.2 ± 1.09 mm.

And the “Diameter of inhibition halo” value (C. albicans ATCC 48867 [1]; Concentration 3 × 10^−5 %, preparation with HPC)?
The value was 13.0 ± 1.00 mm.

What about the “Diameter of inhibition halo” value (C. albicans ATCC 48867 [1]; Concentration 3 × 10^−5 %, preparation without HPC) of the same molecule?
The value was 12.4 ± 0.58 mm.

What about the Minimal inhibitory concentration (C. albicans ATCC 23866) of the same molecule?
Its Minimal inhibitory concentration is 5.6 ± 0.4 μg/ml of econazole.

What about the Minimal inhibitory concentration (C. albicans ATCC 48867 [2]) of the same molecule?
Its Minimal inhibitory concentration is 5.6 ± 0.3 μg/ml of econazole.

What about the “Not improved (% of mice)” value [3, 4] of the same molecule?
The value was 11.11%.

What about the “Not improved (number of mice)” value [3, 4] of the same molecule?
Its value is 1.

What about the “Improved (% of mice)” value ([3]; 0.5 wt. % econazole) of the same molecule?
Its value is 66.66%.

What about the “Improved (number of mice)” value ([3]; 0.5 wt. % econazole) of the same molecule?
The value was 6.

And the “Cured (number of mice)” value ([3]; 0.5 wt. % econazole)?
The value was 0.

And the “Sensibly improved (% of mice)” value ([3]; 0.5 wt. % econazole)?
Its value is 22.22%.

And the “Sensibly improved (number of mice)” value ([3]; 0.5 wt. % econazole)?
The value was 2.

What about the “Not improved (number of mice)” value ([3]; 1 wt. % econazole, 5 days, checked day 6) of the same molecule?
Its value is 3.

What about the “Improved (% of mice)” value ([3]; 1 wt. % econazole) of the same molecule?
Its value is 56.25%.

And the “Improved (number of mice)” value ([3]; 1 wt. % econazole)?
Its value is 9.

What about the “Not improved (% of mice)” value ([3]; 1 wt. % econazole) of the same molecule?
The value was 18.75%.

What about the “Cured (number of mice)” value ([3]; 1 wt. % econazole) of the same molecule?
The value was 0.

What about the “Sensibly improved (% of mice)” value ([3]; 1 wt. % econazole) of the same molecule?
Its value is 25.00%.

What about the “Sensibly improved (number of mice)” value ([3]; 1 wt. % econazole) of the same molecule?
Its value is 4.

And the “cured animals added to sensibly cured animals (% of mice)” value ([3]; 1 wt. % econazole, p=0.0131 between groups)?
The value was 25%.
